The record followed here is US10028961B2, “Therapeutically active compounds and their methods of use” (AGIOS PHARMACEUTICALS, INC., priority 2013, dated 2018).

Where two headings read alike, the source gives them in different places. Some results are limits rather than exact numbers.

Assay [1] has as its target IDH1 wt/IDH1 R132H heterodimer (Homo sapiens (Human), UniProt O75874, R132H). Description: In vitro assay for IDH1m R132H inhibitors, IDH1 wt/IDH1 R132H heterodimer, NADPH depletion (diaphorase/resazurin). Format: biochemical. The procedure, abridged:
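Purified IDH1wt-his/IDH1R132H-flag heterodimer (sf9 co-expression) pre-incubated 1 hr at room temperature with compound and NADPH before α-KG addition. Remaining NADPH read by diaphorase/resazurin conversion to fluorescent resorufin, 5 min at 25° C. Compounds diluted 1:50 from DMSO; IC50 determined.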
For orientation: Resazurin is reduced to fluorescent resorufin, in cell work by metabolically active cells.

In assay [2] the target is IDH1-R132H homodimer enzyme (Homo sapiens (Human), UniProt O75874, R132H). Description: In vitro assay IDH1-R132H homodimer, NADPH depletion assay with NADPH/NADP preincubation. Format: biochemical. The settings on record: 5 μM NADPH and 37.5 μM NADP. The procedure, abridged:
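Conversion of alpha-ketoglutarate to 2-hydroxyglutarate tracked by NADPH depletion. Reaction started with 5 mM alpha-ketoglutarate plus NADPH substrate mix (50 μl total), 60 min at room temperature. Leftover NADPH quantified via diaphorase/resazurin fluorescence.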

Another assay deals with IDH2 R140Q (Homo sapiens (Human), UniProt P48735, R140Q). Description: In vitro assay for IDH2m R140Q inhibitors, cofactor depletion assay. Format: biochemical. As to conditions: IDH2 R140Q enzyme. In short, it runs like this: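 Remaining cofactor measured fluorimetrically: diaphorase/resazurin Stop Mix […], halting the reaction. Before that, mutant enzyme and compound sat 1 h at RT, then substrate mix (4 μM NADPH, 1.6 mM α-KG) was added for 16 h at RT.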
Chain of IDH2 R140Q (P48735 40-452 R140Q): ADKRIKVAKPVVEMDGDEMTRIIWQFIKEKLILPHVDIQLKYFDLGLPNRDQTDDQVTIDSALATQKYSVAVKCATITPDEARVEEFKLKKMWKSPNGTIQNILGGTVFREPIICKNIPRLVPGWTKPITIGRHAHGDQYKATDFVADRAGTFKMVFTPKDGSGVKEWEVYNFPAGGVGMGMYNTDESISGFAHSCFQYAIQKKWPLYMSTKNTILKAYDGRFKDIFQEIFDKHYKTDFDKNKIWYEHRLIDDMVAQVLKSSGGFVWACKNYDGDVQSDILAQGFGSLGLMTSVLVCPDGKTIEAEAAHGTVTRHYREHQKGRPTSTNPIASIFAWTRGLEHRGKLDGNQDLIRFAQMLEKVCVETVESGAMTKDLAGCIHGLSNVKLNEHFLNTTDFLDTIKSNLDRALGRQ

Another assay has as its system HT1080 cells. Kind of assay: Cellular assay for IDH1m R132C inhibitors, 2-HG by LC-MS in HT1080 cells. Type of assay: cell-based. The settings on record: Homo sapiens, HT-1080. In short, it runs like this:
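HT1080 cells at 5000 cells/well were treated with compound (0.2% DMSO final). After 48 h, 2-HG in the medium was measured by LC-MS. Viability was read by CellTiter-Glo luminescence at 72 h.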

In assay [3] the test system is U87MG pLVX-IDH2 R140Q-neo cells. Kind of assay: U87MG pLVX-IDH2 R140Q-neo cell based assay, 2-HG by LC-MS. As to conditions: Homo sapiens, U-87 MG.
Assay [4] relates to Neurosphere cells (TS603). Kind of assay: Cellular assay for IDH1m R132H inhibitors, 2-HG by LC-MS in neurosphere cells (TS603). Type of assay: cell-based. The settings on record: 2-HG in media at 48 hours. In short, it runs like this: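 TS603 neurosphere cells in NeuroCult medium were dosed with compound (0.25% DMSO final) at 37 C, 5% CO2. After 48 hours, medium 2-HG was measured by LC-MS. At 72 hours, viability was read by CellTiter-Glo luminescence.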

The mark [5] stands for this setting: IDH1 wt/R132H heterodimer, NADPH/NADP, not saturated, read-out: IDH1 wt/R132H NADPH/NADP IC50 not saturated.

Chain of IDH1-R132H homodimer enzyme (O75874 whole entry R132H): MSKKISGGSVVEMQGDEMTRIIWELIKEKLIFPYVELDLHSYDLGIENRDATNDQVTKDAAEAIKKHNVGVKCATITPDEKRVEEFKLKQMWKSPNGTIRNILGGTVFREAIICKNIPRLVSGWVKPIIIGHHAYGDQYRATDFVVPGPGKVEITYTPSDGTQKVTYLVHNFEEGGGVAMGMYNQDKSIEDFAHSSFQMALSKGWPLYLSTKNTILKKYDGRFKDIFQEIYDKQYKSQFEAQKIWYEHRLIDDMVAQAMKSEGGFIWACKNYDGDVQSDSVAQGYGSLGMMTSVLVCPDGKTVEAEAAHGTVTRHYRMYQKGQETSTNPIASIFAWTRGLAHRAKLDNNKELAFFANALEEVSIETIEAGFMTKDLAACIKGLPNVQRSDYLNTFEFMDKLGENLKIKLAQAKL
Chain of IDH1 wt/IDH1 R132H heterodimer (O75874 whole entry R132H): as above
Chain of IDH1 wt/IDH1 R132H heterodimer (O75874 whole entry, stated change not applied): as the sequence (O75874 whole entry R132H) above, with H132R counted along it

Turning to `FC1(F)CC[C@@H](Nc2nc(Nc3ccnc(C(F)(F)F)c3)nc(-c3cncc(C(F)(F)F)n3)n2)C1` [Compound 116], the IC50 in assay [1] (IDH1 wt/IDH1 R132H heterodimer, 300 μM NADP (saturated), read-out: IDH1 wt/R132H NADPH/NADP IC50 saturated) is less than 50 nM; in assay [1] (setting [5]) it was less than 50 nM; in assay [2], less than 50 nM; on IDH2 R140Q, less than 50 nM; in the assay on HT1080 cells, 100 to 1000 nM; in assay [3] it was less than 50 nM. Also, the IC50 in assay [4] is less than 50 nM.

On to `FC1(F)CC(Nc2nc(NC3CC(F)(F)C3)nc(-c3ccnc(C(F)(F)F)n3)n2)C1` [Compound 251], for which the IC50 in assay [1] (setting [5]) was 50 to 100 nM; in assay [2] it was 100 to 1000 nM; on IDH2 R140Q, less than 50 nM; in the assay with HT1080 cells, 100 to 1000 nM; in assay [3], 100 to 1000 nM; in assay [4], less than 50 nM.

On to `CC[C@H](Nc1nc(N[C@@H](CC)C(F)(F)F)nc(-c2cccc(Cl)n2)n1)C(F)(F)F` [Compound 180], for which the IC50 in assay [1] (setting [5]) is less than 50 nM; in assay [2], less than 50 nM; against IDH2 R140Q, 50 to 100 nM; in the assay with HT1080 cells it was less than 50 nM; in assay [3], 100 to 1000 nM; in assay [4] it was less than 50 nM.

In the case of `CC(Nc1nc(Nc2ccnc(C3(C#N)CC3)c2)nc(-n2ccc(C(F)(F)F)n2)n1)C(F)(F)F` (stereo not shown) [Compound 201], the IC50 in assay [1] (setting [5]) was less than 50 nM; in assay [2], 50 to 100 nM; against IDH2 R140Q, less than 50 nM; in the assay with HT1080 cells, 50 to 100 nM; in assay [3] it was less than 50 nM; in assay [4], less than 50 nM.

Regarding `CC(F)(F)c1cc(Nc2nc(NC3CCC(F)(F)C3)nc(-c3cccc(C(F)(F)F)n3)n2)ccn1` (stereo not shown) [Compound 163], the IC50 in assay [1] (setting [5]) is less than 50 nM; in assay [2] it was 50 to 100 nM; against IDH2 R140Q, less than 50 nM; in the assay with HT1080 cells, 100 to 1000 nM; in assay [3], less than 50 nM; in assay [4], less than 50 nM.

Turning to `FC1(F)CC[C@@H](Nc2nc(N[C@@H]3CCC(F)(F)C3)nc(-c3cccc(C(F)(F)F)n3)n2)C1` [Compound 111], the IC50 (in assay [1] (setting [5]); in assay [2]; on IDH2 R140Q; in the assay on HT1080 cells; in assay [3]; in assay [4]) was less than 50 nM each time.

In the case of `FC1(F)CC(Nc2nc(NC3CC(F)(F)C3)nc(-c3cncc(Cl)n3)n2)C1` [Compound 144], the IC50 (in assay [1] (setting [5]); in assay [2]; against IDH2 R140Q; in the assay with HT1080 cells; in assay [3]; in assay [4]) was less than 50 nM throughout.

With `FC(F)(F)c1cc(Nc2nc(NCC3CC3)nc(-c3cccc(Cl)n3)n2)ccn1` [Compound 200], the IC50 in assay [1] (setting [5]) was less than 50 nM; in assay [2] it was 50 to 100 nM; on IDH2 R140Q it was less than 50 nM; with HT1080 cells, more than 1000 nM; in assay [3], less than 50 nM; in assay [4] it was less than 50 nM.

In the case of `CCC(Nc1nc(NC(CC)C(F)(F)F)nc(-c2cccc(Cl)n2)n1)C(F)(F)F` (stereo not shown) [Compound 103], the IC50 (in assay [1] (setting [5]); in assay [2]; against IDH2 R140Q; in the assay on HT1080 cells; in assay [3]; in assay [4]) was less than 50 nM each time.

For `FC1(F)CCCC1Nc1nc(NC2CCCC2(F)F)nc(-c2cccc(Cl)n2)n1` (stereo not shown) [Compound 157], the IC50 in assay [1] (setting [5]) was less than 50 nM; in assay [2], less than 50 nM; against IDH2 R140Q, 50 to 100 nM; in the assay on HT1080 cells, less than 50 nM; in assay [3], 50 to 100 nM; in assay [4] it was less than 50 nM.

As to `Fc1cc(F)cc(Nc2nc(NC3CCC(F)(F)C3)nc(-c3nc(C(F)(F)F)cs3)n2)c1` (stereo not shown) [Compound 159], the IC50 was less than 50 nM in assay [1] (setting [5]); less than 50 nM in assay [2]; less than 50 nM against IDH2 R140Q; 100 to 1000 nM in the assay on HT1080 cells; less than 50 nM in assay [3]; less than 50 nM in assay [4].

With `N#Cc1cc(Nc2nc(NC3CCC(F)(F)C3)nc(-n3ccc(C(F)(F)F)n3)n2)ccn1` (stereo not shown) [Compound 179], the IC50 in assay [1] (setting [5]) is less than 50 nM; in assay [2] it was less than 50 nM; at IDH2 R140Q, less than 50 nM; in the assay on HT1080 cells it was 100 to 1000 nM; in assay [3] it was less than 50 nM; in assay [4], less than 50 nM.

In the case of `N#Cc1cc(F)cc(Nc2nc(NC3CC(F)(F)C3)nc(-c3cccc(C(F)(F)F)n3)n2)c1` [Compound 154], the IC50 was less than 50 nM in assay [1] (setting [5]); less than 50 nM in assay [2]; less than 50 nM against IDH2 R140Q; 100 to 1000 nM with HT1080 cells; less than 50 nM in assay [3]; less than 50 nM in assay [4].

For the compound `CC(Nc1nc(NC(C)C(F)(F)F)nc(-n2ccc(C(F)(F)F)n2)n1)C(F)(F)F` (stereo not shown) [Compound 141], the IC50 (in assay [1] (setting [5]); in assay [2]; against IDH2 R140Q; with HT1080 cells; in assay [3]; in assay [4]) was less than 50 nM throughout.

`Nc1ccc(F)c(-c2nc(NC3CCC(F)(F)CC3)nc(NC3CCC(F)(F)CC3)n2)n1` [Compound 249]: the IC50 in assay [1] (setting [5]) was 50 to 100 nM; in assay [2], more than 1000 nM; against IDH2 R140Q it was less than 50 nM; in the assay with HT1080 cells, 100 to 1000 nM; in assay [3] it was 100 to 1000 nM; in assay [4] it was 50 to 100 nM.

For `FC(F)c1cncc(-c2nc(NC3CCC(F)(F)CC3)nc(NC3CCC(F)(F)CC3)n2)n1` [Compound 186], the IC50 in assay [1] (setting [5]) was less than 50 nM; in assay [2] it was 100 to 1000 nM; at IDH2 R140Q it was less than 50 nM; in the assay with HT1080 cells it was 100 to 1000 nM; in assay [3], less than 50 nM; in assay [4], less than 50 nM.

As to `FC1(F)CCC(Nc2nc(NC3CCC(F)(F)CC3)nc(-c3nc(C(F)(F)F)cs3)n2)CC1` [Compound 183], the IC50 was less than 50 nM in assay [1] (setting [5]); 100 to 1000 nM in assay [2]; less than 50 nM against IDH2 R140Q; 50 to 100 nM in the assay on HT1080 cells; less than 50 nM in assay [3]; less than 50 nM in assay [4].

For `N#CC1(c2cc(Nc3nc(NC4CC(F)(F)C4)nc(-n4ccc(C(F)(F)F)n4)n3)ccn2)CC1` [Compound 169], the IC50 (in assay [1] (setting [5]); in assay [2]; at IDH2 R140Q; with HT1080 cells; in assay [3]; in assay [4]) was less than 50 nM throughout.

For `CC(F)(F)c1nc(-c2nc(NC3CCC(F)(F)C3)nc(NC3CCC(F)(F)C3)n2)cs1` (stereo not shown) [Compound 155], the IC50 in assay [1] (setting [5]) is less than 50 nM; in assay [2], less than 50 nM; against IDH2 R140Q, less than 50 nM; in the assay with HT1080 cells, 50 to 100 nM; in assay [3], less than 50 nM; in assay [4], less than 50 nM.

Turning to `CC(Nc1nc(Nc2ccnc(-c3ccccc3)c2)nc(-c2cccc(C(F)(F)F)n2)n1)C(F)(F)F` (stereo not shown) [Compound 217], the IC50 in assay [1] (setting [5]) was less than 50 nM; in assay [2], 50 to 100 nM; against IDH2 R140Q, less than 50 nM; in the assay with HT1080 cells, 100 to 1000 nM; in assay [3], less than 50 nM; in assay [4] it was less than 50 nM.

For `CC[C@H](Nc1nc(N[C@H](CC)C(F)(F)F)nc(-c2cccc(Cl)n2)n1)C(F)(F)F` [Compound 196], the IC50 is less than 50 nM in assay [1] (setting [5]); less than 50 nM in assay [2]; 50 to 100 nM on IDH2 R140Q; 50 to 100 nM in the assay on HT1080 cells; 100 to 1000 nM in assay [3]; less than 50 nM in assay [4].

Regarding `Fc1cc(F)cc(Nc2nc(NC3CC(F)(F)C3)nc(-c3nc(F)ccc3F)n2)c1` [Compound 195], the IC50 was less than 50 nM in assay [1] (setting [5]); 50 to 100 nM in assay [2]; less than 50 nM against IDH2 R140Q; 100 to 1000 nM with HT1080 cells; less than 50 nM in assay [3]; less than 50 nM in assay [4].

Regarding `FC1(F)CCC(Nc2nc(NC3CC(F)(F)C3)nc(-c3cccc(C(F)(F)F)n3)n2)CC1` [Compound 143], the IC50 in assay [1] (setting [5]) is less than 50 nM; in assay [2] it was less than 50 nM; against IDH2 R140Q, less than 50 nM; with HT1080 cells, 50 to 100 nM; in assay [3], less than 50 nM; in assay [4], less than 50 nM.

Turning to `FC1(F)CC[C@H](Nc2nc(N[C@H]3CCC(F)(F)C3)nc(-c3cccc(C(F)(F)F)n3)n2)C1` [Compound 118], the IC50 (in assay [1] (setting [5]); in assay [2]; against IDH2 R140Q; in the assay on HT1080 cells; in assay [3]; in assay [4]) was less than 50 nM each time.

For `FC1(F)CC(Nc2nc(Nc3ccnc(C(F)(F)F)c3)nc(-n3ccc(C(F)(F)F)n3)n2)C1` [Compound 197], the IC50 in assay [1] (setting [5]) is less than 50 nM; in assay [2], 100 to 1000 nM; against IDH2 R140Q, less than 50 nM; in the assay on HT1080 cells, 100 to 1000 nM; in assay [3], less than 50 nM; in assay [4] it was less than 50 nM.
